Several values for one entry are separate records, joined by “and”; a condition that tells them apart may be missing. Equal entries are not always repeated. Structures can show the parent of a compound that is named as a salt. Values belong to the compound of their own block, whether it stands above or below them.
Key:
hCD1d = hCD1d (Homo sapiens, UniProt P15813+P61769); assay: Nano differential scanning fluorimetry (nanoDSF) thermal stability; format: binding; design: TEV protease cleavage site ENLYFQS (C); BirA biotinylation site (C); His7 (C); made in house; host or cells: TurboCHO cells (GenScript); conditions: for ΔTm aveage: Figure 5C, nanoDSF, hCD1d with detergent; for ΔT m (NanoDSF): T m difference between hCD1d in the absence and presence of 1000 μM detergent, 1 μM hCD1d; for ΔT m, detergent class summary: approximate; for detergent concentration at which hCD1d appeared to unfold: disappearance of inflection point in ∂(F350/F330)/∂T
Sequence of hCD1d (P61769+P15813 fused): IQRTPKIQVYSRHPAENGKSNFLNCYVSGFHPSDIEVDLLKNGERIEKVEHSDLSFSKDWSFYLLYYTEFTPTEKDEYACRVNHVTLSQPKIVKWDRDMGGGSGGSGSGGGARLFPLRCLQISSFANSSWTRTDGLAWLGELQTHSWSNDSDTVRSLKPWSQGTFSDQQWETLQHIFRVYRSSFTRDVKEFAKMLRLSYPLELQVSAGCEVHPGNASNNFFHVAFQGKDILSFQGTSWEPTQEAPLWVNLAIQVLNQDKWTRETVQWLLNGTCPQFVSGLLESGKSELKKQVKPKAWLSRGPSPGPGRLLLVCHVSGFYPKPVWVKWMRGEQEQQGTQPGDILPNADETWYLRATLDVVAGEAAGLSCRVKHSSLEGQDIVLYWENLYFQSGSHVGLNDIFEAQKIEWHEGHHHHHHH
Description: We next sought to probe the ability of each detergent to influence the thermal stability of hCD1d. NanoDSF has been previously applied to measure lipid/detergent‐induced thermal stability changes in target proteins (Cecchetti et al., [2021]; Kotov et al., [2019]), but has not yet been applied to ligand binding to CD1. NanoDSF measures the ITF ratio (F 350 nm/F 330 nm) of proteins as a function of temperature to extract thermodynamic parameters. Given that ligand binding typically shifts the melting temperature of proteins, the effect of a ligand on protein stability can be approximated with the ΔT m value (the difference in T m with and without excess ligand) (Cecchetti et al., [2021]; Kotov et al., [2019]). We found all detergents tested to destabilize hCD1d, albeit to different degrees, with ΔT m values ranging from −0.8 to −14.2°C (Figures 4, S4, and Table 1).
Nano differential scanning fluorometry (nanoDSF) was performed using a Prometheus NT.48 (NanoTemper Technologies). Purified hCD1d at 1 μM in 1X PBS pH 7.4 was loaded into nanoDSF grade standard capillaries (NanoTemper Technologies) and exposed to temperatures ranging from 20 to 95°C with a thermal ramping rate of 1°C/min. Excitation power was set to 50%. The ratio of intrinsic fluorescence emission (F 350 nm/F 330 nm) was monitored. Melting temperatures (T m) were obtained from fitting the first derivative plots in the Prometheus NT.48 Software. The experiments were performed in triplicate, and data are presented as the mean ± standard deviation (n = 3).
For experiments with most detergents, prior to data acquisition, hCD1d and detergent or lipid samples were incubated at 37°C overnight (~12 h) to simulate in vitro and in vivo loading conditions. […] For 18:1 LPC experiments: nanoDSF spectra were acquired in the absence and presence of 18:1 LPC in 1X PBS pH 7.4 at 25°C.

[1] = biological target: T1, CSP 319‐328/HLA‐B*08:01/hβ2M complex (Homo sapiens, UniProt P01889, A93T/A95T/D138N/E176V/E187T/K202T/Q94N/R180D/S35A/V36M/Y33D/Y91F); assay: nanoDSF with peptide/HLA complex; format: binding; conditions: for nanoDSF melting temperature of peptide/HLA: peptide/HLA with ODG, replicates
T1 construct: made in house
Description: (§1) To determine whether detergent effects were specific to hCD1d, we performed analogous ITF, MST, and nanoDSF experiments with a peptide/HLA complex. HLA‐B*08:01, presenting the Plasmodium falciparum derived peptide […] ([…]), was selected as a representative model system since the peptide antigen contains hydrophilic solvent‐exposed residues in the antigen‐binding groove (Frooman et al., [2025]). Although structurally similar to that of hCD1d, HLA‐B*08:01 shares low sequence identity (Figure S10a). […] By nanoDSF, ODG caused minimal destabilization of either complex (ΔT m≈−0.2 to −0.8°C; Figure S10f). […] We posit that lipid‐specific unloading effects of detergent are due to either hydrophobic residues in the antigen binding groove (detergent‐CD1d interactions) and/or the hydrophobic nature of the lipid antigen (detergent‐lipid interactions).
(§2) For comparison with peptide/HLA molecules, we prepared recombinant CSP 319‐328/HLA‐B*08:01/hβ2M complex using in vitro refolding methods fully described previously (Frooman et al., [2025]). The peptide sequence for CSP 319–328 is […]. This peptide was chosen since it contains Lys, Gln, and Asp residues predicted to be solvent‐exposed in the HLA‐B*08:01 binding groove (Frooman et al., [2025]).
NanoDSF experiments with peptide/HLA molecules and detergents were performed using an analogous protocol.

[2] = biological target: T1, CSP 319‐328/HLA‐B*08:01/hβ2M complex; assay: MST with peptide/HLA complex; format: binding; conditions: for MST normalized fluorescence signal (Fnorm): peptide/HLA with ODG, replicates
Description: as §1, §2
MST experiments with peptide/HLA molecules and detergents were performed using an analogous protocol.

CD1c = test system: CD1c; design: method as in Mansour et al., 2016; conditions: ref Mansour et al., 2016; cited from earlier work

Compound: CCCCCCCCO[C@@H]1O[C@H](CO)[C@@H](O)[C@H](O)[C@H]1O [ODG, n‐octyl‐β‐D‐glucopyranoside]
- ΔTm aveage (hCD1d): -0.83 °C
- ΔT m (NanoDSF) (hCD1d): −0.8 ± 0.4 °C
- ΔT m (nanoDSF), lipid/hCD1d (hCD1d; absence vs maximum concentration of detergent, 1 μM endo/hCD1d (Figure S10)): −0.2 to −0.8 °C
- ΔT m, detergent class summary (hCD1d): −1 to −2 °C
- ΔT m (nanoDSF), peptide/HLA ([1]; absence vs maximum concentration of detergent, 1 μM peptide/HLA): −0.2 to −0.8 °C
- nanoDSF melting temperature of peptide/HLA ([1]; concentration 1.495 (unit not given)): 55.47 and 55.54 and 54.62
- nanoDSF melting temperature of peptide/HLA ([1]; concentration 2.991 (unit not given)): 55.33 and 55.34 and 55.32
- nanoDSF melting temperature of peptide/HLA ([1]; concentration 5.981 (unit not given)): 55.24 and 55.48 and 55.35
- nanoDSF melting temperature of peptide/HLA ([1]; concentration 11.96 (unit not given)): 55.41 and 55.18 and 55.09
- nanoDSF melting temperature of peptide/HLA ([1]; concentration 23.93 (unit not given)): 55.51 and 54.95 and 55.4
- nanoDSF melting temperature of peptide/HLA ([1]; concentration 47.85 (unit not given)): 55.44 and 54.77 and 55.24
- nanoDSF melting temperature of peptide/HLA ([1]; concentration 95.7 (unit not given)): 55.2 and 55.36 and 55.21
- nanoDSF melting temperature of peptide/HLA ([1]; concentration 191.4 (unit not given)): 55.5 and 55.26 and 55.22
- nanoDSF melting temperature of peptide/HLA ([1]; concentration 382.8 (unit not given)): 55.54 and 55.43 and 55.19
- nanoDSF melting temperature of peptide/HLA ([1]; concentration 765.6 (unit not given)): 55.29 and 55.05 and 54.95
- nanoDSF melting temperature of peptide/HLA ([1]; concentration 1531 (unit not given)): 55.13 and 55.03 and 54.92
- nanoDSF melting temperature of peptide/HLA ([1]; concentration 3063 (unit not given)): 54.91 and 54.34 and 54.94
- nanoDSF melting temperature of peptide/HLA ([1]; concentration 6125 (unit not given)): 53.87 and 53.91
- nanoDSF melting temperature of peptide/HLA ([1]; concentration 12500 (unit not given)): 51.99 and 52.51 and 52.34
- nanoDSF melting temperature of peptide/HLA ([1]; concentration 25000 (unit not given)): 50.57 and 50.47 and 50.7
- nanoDSF melting temperature of peptide/HLA ([1]; concentration 50000 (unit not given)): 50.26 and 49.92 and 50.62
- Kd ([2]; 100 nM AF647‐labeled peptide/HLA, 25°C, read-out: K D (MST), peptide/HLA): 3.97 ± 0.29 mM
- MST normalized fluorescence signal (Fnorm) ([2]; concentration 1.52588e-6 (unit not given)): 823.198 and 827.76 and 828.811
- MST normalized fluorescence signal (Fnorm) ([2]; concentration 3.05176e-6 (unit not given)): 822.943 and 827.867 and 830.525
- MST normalized fluorescence signal (Fnorm) ([2]; concentration 6.10352e-6 (unit not given)): 822.246 and 827.784 and 829.217
- MST normalized fluorescence signal (Fnorm) ([2]; concentration 1.2207e-5 (unit not given)): 822.018 and 826.127 and 829.204
- MST normalized fluorescence signal (Fnorm) ([2]; concentration 2.44141e-5 (unit not given)): 822.327 and 826.016 and 829.378
- MST normalized fluorescence signal (Fnorm) ([2]; concentration 4.88281e-5 (unit not given)): 822.531 and 826.781 and 828.529
- MST normalized fluorescence signal (Fnorm) ([2]; concentration 9.76563e-5 (unit not given)): 821.832 and 827.649 and 828.743
- MST normalized fluorescence signal (Fnorm) ([2]; concentration 0.000195313 (unit not given)): 821.404 and 825.833 and 828.951
- MST normalized fluorescence signal (Fnorm) ([2]; concentration 0.000390625 (unit not given)): 819.989 and 827.51 and 830.305
- MST normalized fluorescence signal (Fnorm) ([2]; concentration 0.00078125 (unit not given)): 822.464 and 828.227 and 831.061
- MST normalized fluorescence signal (Fnorm) ([2]; concentration 0.0015625 (unit not given)): 823.907 and 829.452 and 833.281
- MST normalized fluorescence signal (Fnorm) ([2]; concentration 0.003125 (unit not given)): 828.308 and 833.352 and 835.76
- MST normalized fluorescence signal (Fnorm) ([2]; concentration 0.00625 (unit not given)): 834.384 and 840.244 and 840.854
- MST normalized fluorescence signal (Fnorm) ([2]; concentration 0.0125 (unit not given)): 835.617 and 843.292 and 844.526
- MST normalized fluorescence signal (Fnorm) ([2]; concentration 0.025 (unit not given)): 837.125 and 844.883 and 846.326
- MST normalized fluorescence signal (Fnorm) ([2]; concentration 0.05 (unit not given)): 838.274 and 844.594 and 846.629

Compound: CCCCCCCCCCCCOS(=O)(=O)O [SDS, sodium dodecyl sulfate]
- ΔTm aveage (hCD1d): -13.07 °C
- ΔT m (NanoDSF) (hCD1d): −13.1 ± 0.7 °C
- ΔT m, detergent class summary (hCD1d): −12 to −15 °C
- detergent concentration at which hCD1d appeared to unfold (hCD1d): > 200 µM

- ΔTm aveage (hCD1d): -9.7 °C
- ΔT m (NanoDSF) (hCD1d): -9.7 ± 0.4 °C
- ΔT m, detergent class summary (hCD1d): −8 to −10 °C
Compound: Tween 80

Compound: CCCCCCCCCCCCCCCC[N+](C)(C)C [CTAB, hexadecyltrimethylammonium bromide]
- ΔTm aveage (hCD1d): -14.17 °C
- ΔT m (NanoDSF) (hCD1d): −14.2 ± 0.8 °C
- ΔT m, detergent class summary (hCD1d): −12 to −15 °C
- detergent concentration at which hCD1d appeared to unfold (hCD1d): > 200 µM

Compound: CCCCCCCCCCCC[N+](C)(C)[O-] [LDAO, lauryldimethylamine‐N‐oxide]
- ΔTm aveage (hCD1d): -13.43 °C
- ΔT m (NanoDSF) (hCD1d): −13.4 ± 0.1 °C
- ΔT m, detergent class summary (hCD1d): −12 to −15 °C
- detergent concentration at which hCD1d appeared to unfold (hCD1d): > 200 µM

Compound: C[C@H](CCC(=O)NCCC[N+](C)(C)CCCS(=O)(=O)[O-])[C@H]1CC[C@H]2[C@@H]3[C@H](O)C[C@@H]4C[C@H](O)CC[C@]4(C)[C@H]3C[C@H](O)[C@]12C [CHAPS, 3‐((3‐cholamidopropyl) dimethylammonio)‐1‐propanesulfonate]
- ΔTm aveage (hCD1d): -1.3 °C
- ΔT m (NanoDSF) (hCD1d): −1.3 ± 0.4 °C
- ΔT m, detergent class summary (hCD1d): −1 to −2 °C
- stripping of lipid antigens from CD1c (in words) (CD1c): not

Compound: C[C@H](CCC(=O)O)[C@H]1CC[C@H]2[C@@H]3CC[C@@H]4C[C@H](O)CC[C@]4(C)[C@H]3C[C@H](O)[C@]12C [Deoxycholate, sodium deoxycholate]
- ΔTm aveage (hCD1d): -10 °C
- ΔT m (NanoDSF) (hCD1d): −10.0 ± 0.3 °C
- ΔT m (NanoDSF) (hCD1d; listed as Sodium deoxycholate): −10.0 ± 0.3 °C
- detergent concentration at which hCD1d appeared to unfold (hCD1d): > 200 µM

From paper PMC12720774, “Detergents alter the stability and lipid binding properties of the CD1d immunoreceptor” (Protein Science : A Publication of the Protein Society, 2025)
